Our source for the IC50 values is patent US11708367B2, “Compounds for the treatment of kinase-dependent disorders” (Exelixis, Inc., priority 2018, dated 2023).

Test [1] deals with T1, Mer (Homo sapiens (Human), UniProt Q12866). The test is described as follows: Human Mer kinase assay (33P radiometric, KinaseProfiler). The class given is biochemical. To be noted: 10 μM ATP. Here is the method: Kinase activity and compound inhibition were investigated using the ^33P-Phosphoryl transfer radiometric kinase assay, performed using the KinaseProfiler™ service of Eurofins Pharma Discovery Services UK Limited. Dose-response experiments were performed using nine compound concentrations in a 96-well microtiter plate. For each assay, all compounds were prepared to a 50× final assay concentration (50 μM) in 100% DMSO, then diluted in a half-log series, with the final top concentration at 1 μM. This working stock of the compound was added to the assay well as the first component in the reaction, followed by the remaining components as detailed in the following assay protocols below. The positive control wells (100% kinase activity) contain all components of the reaction including 2% DMSO (control for solvent effects), except the compound of interest. Blank wells contain all components of the reaction, with the reference inhibitor, staurosporine. This reference compound was used to abolish kinase activity and generated the 0% kinase activity base-line. IC50 values were calculated by nonlinear regression analysis using the sigmoidal dose-response (variable slope) curve fit on XLFit version 5.3 (ID Business Solutions).
Human Mer (residues R557-E882 with H628Q and R794A, 0.7 nM) was incubated with 8 mM MOPS pH 7.0, 0.2 mM EDTA, 30 mM NaCl, 250 μM GGMEDIYFEFMGGKKK (SEQ ID NO. 44), 10 mM magnesium acetate, and 10 μM [γ-33P-ATP]. The reaction was initiated by the addition of the Mg/ATP mix. After incubation for 40 minutes at room temperature, the reaction was stopped by the addition of phosphoric acid to a concentration of 0.5%. A reaction aliquot of 10 μL was then spotted onto a P30 filtermat and washed four times for 4 minutes in 0.425% phosphoric acid and once in methanol prior to drying and scintillation counting. Incorporated 33P was measured using the Wallac Microbeta scintillation counter (Perkin Elmer).
Target sequence in this assay (Q12866 557-882): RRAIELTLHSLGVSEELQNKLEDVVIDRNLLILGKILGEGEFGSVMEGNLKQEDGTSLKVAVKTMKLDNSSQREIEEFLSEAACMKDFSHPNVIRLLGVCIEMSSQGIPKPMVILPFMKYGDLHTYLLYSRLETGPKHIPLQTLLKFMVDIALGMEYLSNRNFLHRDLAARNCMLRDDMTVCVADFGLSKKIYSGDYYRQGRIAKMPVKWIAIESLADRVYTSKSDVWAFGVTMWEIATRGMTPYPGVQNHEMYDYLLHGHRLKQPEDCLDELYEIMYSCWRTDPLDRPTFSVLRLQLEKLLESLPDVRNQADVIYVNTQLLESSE

The next test has as its target Met (Homo sapiens (Human), UniProt P08581). Nature of the test: Met autophosphorylation ELISA in PC-3 cells. The class given is cell-based. The following applies: cellular, HGF-stimulated, phospho-Met ELISA, read-out: c-Met IC50. The procedure, abridged:
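Serum-starved PC-3 cells treated 1 h with compound (8-point series, 0.3% DMSO), then stimulated 10 min with 100 ng/mL HGF. Phospho-Met (panTyr) quantified in lysates by sandwich ELISA; IC50 from 4-parameter logistic fit against DMSO and reference-inhibitor controls.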
On the technique in general: An ELISA detects its analyte on a solid surface through an enzyme-linked reagent.

Test [2] concerns the target T1, Mer. Nature of the test: Mer autophosphorylation ELISA in transient transfected 293A cells. Type of test: cell-based. To be noted: cellular, MERTK-transfected 293A cells, phospho-Mer ELISA. How it is done: 293A cells (Thermo Fisher #R70507) were seeded at 1.5×10^6 cells/well onto 100 mm dish (Greiner #664169), in DMEM (Thermo Fisher #11995-040) containing 10% FBS (Thermo Fisher #26140-079), 1% MEM NEAA (Thermo Fisher #11140-050), 1% GlutaMax (Thermo Fisher #35050-061), and 1% Penicillin Streptomycin (Thermo Fisher #15140-122). 293A cells were incubated at 37° C., 5% CO2 for 24 h and then transfected with 6 μg MERTK DNA (Genecopoeia #EX-Z8208-M02) using TransIT LT1 transfection reagent (Mirus-Bio #MIR2305). After 24 h incubation, the transfected 293A cells were seeded at 1×10^5 cells/well onto 96-well plates (Corning #3904) in DMEM growth medium overnight. Test compounds were serially diluted to produce an 8-point dose curve in fresh serum-free medium to a final concentration of 0.3% DMSO (vehicle) and added to the cells and incubated for 1 h. Cells were then immediately lysed with 150 μL of cold IX lysis buffer [20 mM Tris, 137 mM sodium chloride, 2 mM EDTA, 10% glycerol, 1% NP-40 alternative, 1 mM activated sodium orthovanadate, 1 mM PefaBloc SC (Sigma-Aldrich #11429868001), protease/phosphatase inhibitor tablet (Thermo Fisher #A32959)]. Lysates were clarified by centrifugation and 50 μL/well added into the human phospho-Mer DuoSet IC ELISA (R&D Systems #DYC2579-2). Assay was performed according to manufacturer's instructions and sample phospho-Mer concentrations were extrapolated using human phospho-Mer control (R&D Systems #841793) as a standard. Positive control wells (100% activity) contained DMSO-treated cell lysates. Negative control wells (0% activity) contained reference inhibitor-treated cell lysates. IC50 values were calculated by nonlinear regression analysis using a 4-parameter logistic curve fit in ActivityBase XE (IDBS).
Target sequence in this assay (Q12866 21-999): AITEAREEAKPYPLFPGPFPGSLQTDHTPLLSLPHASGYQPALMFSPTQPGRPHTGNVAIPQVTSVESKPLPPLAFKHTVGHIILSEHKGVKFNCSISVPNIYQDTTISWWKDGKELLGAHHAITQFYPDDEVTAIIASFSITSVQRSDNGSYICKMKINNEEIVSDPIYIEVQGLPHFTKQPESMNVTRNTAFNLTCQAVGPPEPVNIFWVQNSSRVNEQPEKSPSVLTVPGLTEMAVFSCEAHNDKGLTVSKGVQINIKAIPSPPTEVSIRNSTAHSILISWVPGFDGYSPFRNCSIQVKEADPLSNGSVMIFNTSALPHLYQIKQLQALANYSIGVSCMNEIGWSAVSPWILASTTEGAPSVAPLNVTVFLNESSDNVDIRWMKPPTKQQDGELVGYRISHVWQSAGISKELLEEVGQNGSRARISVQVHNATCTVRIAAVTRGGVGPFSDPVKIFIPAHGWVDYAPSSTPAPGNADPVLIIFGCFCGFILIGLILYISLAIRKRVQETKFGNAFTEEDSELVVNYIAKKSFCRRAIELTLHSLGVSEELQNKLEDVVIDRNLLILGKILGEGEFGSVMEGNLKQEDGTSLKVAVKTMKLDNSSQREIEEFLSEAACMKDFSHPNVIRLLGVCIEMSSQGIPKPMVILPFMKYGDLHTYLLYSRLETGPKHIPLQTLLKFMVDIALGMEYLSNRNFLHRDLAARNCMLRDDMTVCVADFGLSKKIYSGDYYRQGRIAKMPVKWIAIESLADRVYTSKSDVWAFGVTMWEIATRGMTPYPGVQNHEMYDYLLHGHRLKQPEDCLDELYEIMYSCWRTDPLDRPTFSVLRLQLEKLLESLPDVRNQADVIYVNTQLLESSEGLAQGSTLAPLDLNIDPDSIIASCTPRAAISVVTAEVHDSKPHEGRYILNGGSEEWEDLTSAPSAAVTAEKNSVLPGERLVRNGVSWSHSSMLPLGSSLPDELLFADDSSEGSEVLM

Sequence of Met (P08581 25-1390): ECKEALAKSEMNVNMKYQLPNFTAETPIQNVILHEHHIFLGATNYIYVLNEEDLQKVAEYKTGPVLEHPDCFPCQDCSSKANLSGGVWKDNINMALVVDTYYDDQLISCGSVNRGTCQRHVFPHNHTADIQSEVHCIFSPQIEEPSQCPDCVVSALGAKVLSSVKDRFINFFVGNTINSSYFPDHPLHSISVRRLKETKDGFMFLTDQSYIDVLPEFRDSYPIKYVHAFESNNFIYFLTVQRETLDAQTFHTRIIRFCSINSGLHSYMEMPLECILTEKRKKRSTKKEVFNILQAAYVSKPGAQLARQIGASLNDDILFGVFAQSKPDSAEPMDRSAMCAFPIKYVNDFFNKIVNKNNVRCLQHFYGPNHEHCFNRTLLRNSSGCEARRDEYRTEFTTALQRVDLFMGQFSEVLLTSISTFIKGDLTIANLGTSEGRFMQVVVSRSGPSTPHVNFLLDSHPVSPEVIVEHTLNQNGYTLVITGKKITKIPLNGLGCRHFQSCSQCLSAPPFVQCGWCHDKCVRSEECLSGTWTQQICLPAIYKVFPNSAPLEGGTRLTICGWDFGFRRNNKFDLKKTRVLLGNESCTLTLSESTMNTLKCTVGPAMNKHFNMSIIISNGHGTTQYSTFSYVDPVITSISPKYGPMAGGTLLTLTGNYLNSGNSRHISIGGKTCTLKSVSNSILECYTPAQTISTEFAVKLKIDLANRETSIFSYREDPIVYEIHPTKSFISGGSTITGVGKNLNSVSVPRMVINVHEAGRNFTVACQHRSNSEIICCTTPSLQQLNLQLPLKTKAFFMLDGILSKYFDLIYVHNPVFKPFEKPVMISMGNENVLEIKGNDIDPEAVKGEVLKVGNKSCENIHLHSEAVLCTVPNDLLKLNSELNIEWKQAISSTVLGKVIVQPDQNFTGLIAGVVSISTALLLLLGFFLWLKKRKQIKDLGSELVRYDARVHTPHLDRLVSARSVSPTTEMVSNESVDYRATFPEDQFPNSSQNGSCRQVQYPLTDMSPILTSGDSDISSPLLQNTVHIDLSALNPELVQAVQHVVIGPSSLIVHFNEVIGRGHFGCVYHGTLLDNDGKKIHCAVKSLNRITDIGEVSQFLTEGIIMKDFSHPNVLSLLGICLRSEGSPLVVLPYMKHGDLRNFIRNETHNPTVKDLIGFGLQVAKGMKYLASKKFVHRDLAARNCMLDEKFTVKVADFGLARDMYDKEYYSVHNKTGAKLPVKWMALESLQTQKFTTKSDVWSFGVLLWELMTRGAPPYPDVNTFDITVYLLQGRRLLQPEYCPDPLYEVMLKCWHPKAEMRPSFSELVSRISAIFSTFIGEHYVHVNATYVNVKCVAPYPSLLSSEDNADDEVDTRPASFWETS

For `COc1cc2ncnc(Oc3ccc(NC(=O)C4(C(=O)Nc5ccc(F)cc5)CC4)cc3)c2nc1OC` [Compound 28, 1-N-[4-(6,7-dimethoxy-pyrido[3,2-d]pyrimidin-4-yl)oxyphenyl]-1-N′-(4-fluorophenyl)cyclo-propane-1,1-dicarboxamide], the half-maximal inhibitory concentration (IC50) (commonly the concentration that gives 50% inhibition) is at most 10 nM against Mer [1], 100 to 300 nM on Met and 10 to 100 nM against Mer [2].

In the case of `COc1cc2ncnc(Oc3ccc(NC(=O)C4(C(=O)Nc5ccc(F)cc5)CC4)cc3Cl)c2nc1OC` [Compound 29, 1-N′-[3-chloro-4-(6,7-dimethoxypyrido[3,2-d]pyrimidin-4-yl)oxyphenyl]-1-N-(4-fluorophenyl)cyclo-propane-1,1-dicarboxamide], the IC50 against Mer [1] was at most 10 nM; on Met, 10 to 100 nM.

Turning to `COc1cc2ncnc(Oc3ccc(NC(=O)C4(C(=O)Nc5ccc(F)cc5)CC4)cc3F)c2nc1OC` [Compound 30, 1-N′-[4-(6,7-dimethoxypyrido[3,2-d]pyrimidin-4-yl)oxy-3-fluorophenyl]-1-N-(4-fluorophenyl)cyclopropane-1,1-dicarboxamide], the results for the IC50 at Mer [1], on Met and against Mer [2] were at most 10 nM, 10 to 100 nM and at most 10 nM, respectively.

Regarding `COc1nc2c(Oc3ccc(NC(=O)C4(C(=O)Nc5ccc(F)cc5)CC4)cc3)ncnc2cc1OCCCN1CCOCC1` [Compound 65, 1-N′-(4-fluorophenyl)-1-N-[4-[6-methoxy-7-(3-morpholin-4-ylpropoxy)pyrido[3,2-d]pyrimidin-4-yl]oxyphenyl]cyclopropane-1,1-dicarboxamide], the IC50 against Mer [1] was at most 10 nM; on Met, 10 to 100 nM; against Mer [2], 10 to 100 nM.

Take `COc1nc2c(Oc3ccc(NC(=O)C4(C(=O)Nc5ccc(F)cc5)CC4)cc3Cl)ncnc2cc1OCCCN1CCOCC1` [Compound 66, 1-N′-[3-chloro-4-[6-methoxy-7-(3-morpholin-4-ylpropoxy)pyrido[3,2-d]pyrimidin-4-yl]oxyphenyl]-1-N-(4-fluorophenyl)cyclo-propane-1,1-dicarboxamide]: the IC50 against Mer [1] was at most 10 nM; at Met, 10 to 100 nM.

As to `COc1nc2c(Oc3ccc(NC(=O)C4(C(=O)Nc5ccc(F)cc5)CC4)cc3F)ncnc2cc1OCCCN1CCOCC1` [Compound 67, 1-N′-[3-fluoro-4-[6-methoxy-7-(3-morpholin-4-ylpropoxy)pyrido[3,2-d]pyrimidin-4-yl]oxyphenyl]-1-N-(4-fluorophenyl)cyclo-propane-1,1-dicarboxamide], the IC50 is at most 10 nM at Mer [1], 10 to 100 nM on Met and at most 10 nM at Mer [2].

Turning to `COc1cc2c(Oc3ccc(NC(=O)C4(C(=O)Nc5ccc(F)cc5)CC4)cc3)ncnc2cn1` [Compound 91, 1-N′-(4-fluorophenyl)-1-N-[4-(6-methoxypyrido[3,4-d]pyrimidin-4-yl)oxyphenyl]cyclopropane-1,1-dicarboxamide], the IC50 against Mer [1] was 10 to 100 nM; on Met, above 300 nM.

Consider `COc1cc2ncnc(Oc3ccc(NC(=O)C4(C(=O)Nc5ccc(F)cc5)CC4)cc3)c2cn1` [Compound 104, 1-N′-(4-fluorophenyl)-1-N-[4-(7-methoxypyrido[4,3-d]pyrimidin-4-yl)oxy-phenyl]cyclopropane-1,1-dicarboxamide], for which the IC50 on Mer [1] is 10 to 100 nM; at Met it was above 300 nM.

For the compound `COc1cc2ncnc(Oc3ccc(NC(=O)C4(C(=O)Nc5ccc(F)cc5)CC4)cc3)c2cc1C(=O)NC1COC1` [Compound 115, 1-N′-(4-fluorophenyl)-1-N-[4-[7-methoxy-6-(oxetan-3-ylcarbamoyl)quinazolin-4-yl]oxyphenyl]cyclopropane-1,1-dicarboxamide], the IC50 lay in the range of 10 to 100 nM at Mer [1] and 100 to 300 nM on Met.

For `COc1cc2ncnc(Oc3ccc(NC(=O)C4(C(=O)Nc5ccc(F)cc5)CC4)cc3)c2cc1C(=O)NC1CC1` [Compound 116, 1-N-[4-[6-(cyclopropylcarbamoyl)-7-methoxyquinazolin-4-yl]oxyphenyl]-1-N′-(4-fluorophenyl)cyclopropane-1,1-dicarboxamide], the concentration for half-maximal inhibition (IC50) fell in the range of 10 to 100 nM against Mer [1] and 100 to 300 nM at Met.

Regarding `COc1cc2ncnc(Oc3ccc(NC(=O)C4(C(=O)Nc5ccc(F)cc5)CC4)cc3)c2cc1C(N)=O` [Compound 117, 1-N-[4-(6-carbamoyl-7-methoxyquinazolin-4-yl)oxyphenyl]-1-N′-(4-fluorophenyl)cyclopropane-1,1-dicarboxamide], the values for the 50% inhibitory concentration (IC50) against Mer [1] and at Met were at most 10 nM and 100 to 300 nM, respectively.

With `COc1cc2ncnc(Oc3ccc(NC(=O)C4(C(=O)Nc5ccc(F)cc5)CC4)cc3)c2cc1C(=O)NCCN1CCCC1` [Compound 118, 1-N′-(4-fluorophenyl)-1-N-[4-[7-methoxy-6-(2-pyrrolidin-1-ylethyl-carbamoyl)quinazolin-4-yl]oxyphenyl]cyclopropane-1,1-dicarboxamide], the IC50 against Mer [1] was at most 10 nM; at Met it was 100 to 300 nM; against Mer [2], 10 to 100 nM.

On to `COc1cc2ncnc(Oc3ccc(NC(=O)C4(C(=O)Nc5ccc(F)cc5)CC4)cc3)c2cc1C(=O)NC[C@H]1CCCN1C(=O)OC(C)(C)C` [Compound 119, tert-butyl (2R)-2-[[[4-[4-[[1-[(4-fluoro-phenyl)carbamoyl]cyclo-propane-carbonyl]amino]phenoxy]-7-methoxyquinazoline-6-carbonyl]amino]methyl]pyr-rolidine-1-carboxylate], for which the IC50 against Mer [1] was 10 to 100 nM; at Met it was above 300 nM.

Consider `COc1cc2ncnc(Oc3ccc(NC(=O)C4(C(=O)Nc5ccc(F)cc5)CC4)cc3)c2cc1C(=O)NC[C@@H]1CCCN1C(=O)OC(C)(C)C` [Compound 120, tert-butyl (2S)-2-[[[4-[4-[[1-[(4-fluoro-phenyl)carbamoyl]cyclo-propane-carbonyl]amino]phenoxy]-7-methoxyquinazoline-6-carbonyl]amino]methyl]pyr-rolidine-1-carboxylate], for which the IC50 against Mer [1] is 10 to 100 nM; at Met, above 300 nM.

For `COc1cc2ncnc(Oc3ccc(NC(=O)C4(C(=O)Nc5ccc(F)cc5)CC4)cc3)c2cc1C(=O)NC[C@H]1CCCN1` [Compound 121, 1-N′-(4-fluorophenyl)-1-N-[4-[7-methoxy-6-[[(2R)-pyrrolidin-2-yl]methyl-carbamoyl]quinazolin-4-yl]oxyphenyl]cyclopropane-1,1-dicarboxamide], the concentration for half-maximal inhibition (IC50) is at most 10 nM on Mer [1] and 100 to 300 nM on Met.

Take `COc1cc2ncnc(Oc3ccc(NC(=O)C4(C(=O)Nc5ccc(F)cc5)CC4)cc3)c2cc1C(=O)NC[C@@H]1CCCN1` [Compound 122, 1-N′-(4-fluorophenyl)-1-N-[4-[7-methoxy-6-[[(2S)-pyrrolidin-2-yl]methyl-carbamoyl]quinazolin-4-yl]oxyphenyl]cyclopropane-1,1-dicarboxamide]: the half-maximal inhibitory concentration (IC50) on Mer [1] is at most 10 nM; on Met it was 100 to 300 nM.

Regarding `COc1cc2nccc(Oc3ccc(NC(=O)C4(C(=O)Nc5ccc(F)cc5)CC4)cc3Cl)c2nc1OC` [Compound 141, 1-N′-[3-chloro-4-[(6,7-dimethoxy-1,5-naphthyridin-4-yl)oxy]phenyl]-1-N-(4-fluorophenyl)cyclo-propane-1,1-dicarboxamide], the concentration for half-maximal inhibition (IC50) against Mer [1] and on Met was at most 10 nM throughout.
